The values below come from patent publication US4259329A, “17-Cyclobutylmethyl-3-hydroxy-β-methyl-6-methylene morphinane, and methods of treating pain with them” (priority 1980, dated 1981).

In data set [1] the test system is Physically Morphine Dependent Rats. It counts as in vivo. On the procedure:
(§1) Substitution Studies in Physically Morphine Dependent Rats
(§2) Rats were made physically dependent by continuous infusion of morphine through an indwelling intraperitoneal cannula as has been described (D. G. Teiger, J. Pharmacol. Exp. Ther., 190 408, 1974). Then one day substitution of either TR-5257 or TR-5379 was studied. Both drugs were infused at the rate of 125 mg/kg/day.

Data set [2] relates to mice (acetic acid writhing). Kind of data set: Acetic Acid Mouse Writhing Test (analgesic effects). It counts as in vivo, male CD-1 mice. The note with it: sc, 0.25 h, subcutaneous, acetic acid i.p. 15 min post drug, read-out: ED50 (dose required to reduce the number of writhes by 50%). Here is the method: Acetic Acid Mouse Writhing Test
The analgesic effects of the test compounds were determined in mice by use of the acetic acid writhing test described by B. A. Whittle, Brit. J. Pharmacol., 22: 246 (1964). In this test at least three groups of 5 male CD-1 mice each were given subcutaneous doses of the test drug dissolved in distilled water. In all cases 0.4 milliliters of a 0.5% V/V acetic acid in distilled water solution was administered intraperitoneally 15 minutes post drug. The number of writhes in a 20 minute interval beginning 5 minutes after the acetic acid injection were determined and compared with the number of writhes in a control group which had received only acetic acid.
Percent inhibition of writhing was calculated as: [formula]
The ED50 dose, i.e., the dose required to reduce the number of writhes by 50%, was determined graphically from a plot of % inhibition as a probit verus log dose. Confidence limits of 95% were calculated on the basis of those results falling in the range 16-84% inhibition. See Litchfield, J. T. and Wilcoxon, F., J. Pharmacol. Exp. Ther., 96, 99-113 (1949).

Data set [3] deals with Physically Morphine Dependent Rats. Kind of data set: Incidence of side effects during substitution in morphine dependent rats. On the procedure: as §1, §2
*Post termination of morphine infusion and during test drug infusion.

For data set [4], the system named is rats (effect of morphine, tail flick). Kind of data set: Evaluation of Narcotic Antagonist Activity (modified rat tail flick test, antagonism of morphine). It counts as in vivo, male albino Wistar rats. On the procedure:
Evaluation of Narcotic Antagonist Activity
The narcotic antagonist effect of the test compound was determined by a modification of the rat tail flick procedure of Harris and Pierson (J. Pharmacol. Exp. Ther., 143:141 [1964]).
Male albino Wistar rats (100-120 g) were used for this study. A rat's tail is so placed so as to cover a photocell. Heat is applied by a lamp in a reflector with a timer being connected to the lamp and photocell so that the timer goes on when the light is turned on and is turned off when the photocell is uncovered. A rheostat, incorporated into a heating lamp is used to adjust the intensity of the light falling on the tail of the rat such that the rat's control reaction time is from two to four seconds. Animals with a control reaction time outside this range are rejected. The rheostat adjustment is made only if a significant proportion (1 out of every 10 rats) of the reaction times are outside the range of two to four seconds. Groups of 5 rats were used, and two control times were determined at 60 and 30 minutes prior to subcutaneous injection of the drug.
At least thirty minutes after the last control run the test drug was given […]. This was followed ten minutes later by an ED80 dose of morphine subcutaneously. The animals were retested at 20 minutes after the morphine injection. Control animals were given vehicle and morphine only. The data were calculated as follows: [formula]
The data were plotted on log-probit paper and AD50 values, i.e., the dose required to inhibit the effect of morphine by 50% within 95% confidence limits, were determined by the method of Litchfield and Wilcoxon.
In general terms: Thermal pain tests record how soon the animal reacts.

Data set [5] relates to drug dependent monkeys. Kind of data set: Substitution for morphine in drug dependent monkeys. It counts as in vivo.
The mark [6] stands for this setting: +6 hr post termination of morphine infusion, during test drug infusion.

“Also recorded” adds a separate entry of the source. Counter-ions that a name gives are not always drawn. Like-named read-outs stand apart in the source and are kept apart here.

On to `CN1CC[C@]23c4c5ccc(O)c4O[C@H]2[C@@H](O)C=C[C@H]3[C@H]1C5` [Morphine], for which the “Mean % Change in Weight From Termination of Morphine Infusion” value (“Mean % Change in Weight From Termination” for short) in data set [1] (+1 day (test drug infusion stopped here), 125 mg/kg/day for 1 day, morphine: infusion schedule 50-200 mg/kg/day) is given as -16.8%; in data set [1] (+2 days, 125 mg/kg/day for 1 day, morphine: infusion schedule 50-200 mg/kg/day), -12.7%; in data set [1] (+3 days, 125 mg/kg/day for 1 day, morphine: infusion schedule 50-200 mg/kg/day), -7.8%; in data set [1] (+4 days, 125 mg/kg/day for 1 day, morphine: infusion schedule 50-200 mg/kg/day), -1.6%.
A word on the ED50: it is the dose that gives a 50% effect, or the effect in half of the subjects. Consider `C[C@H]1CC(=O)C[C@]23CCN(CC4CCC4)[C@H](Cc4ccc(O)cc42)[C@H]13.O=C(O)C(O)C(O)C(=O)O` [TR-5257, 17-Cyclobutylmethyl-3-hydroxy-8β-methylmorphinan-6-one Tartrate], for which the ED50 in data set [2] was 0.14 mg/kg. Besides, in data set [1] (rat, in vivo), the “loss in weight during substitution (in words)” value is “appeared to prevent the marked loss in weight observed in the morphine controls” and the substitution for morphine result is listed as “ambiguous, with indication of partial substitution”. The “Mean % Change in Weight From Termination” value in data set [1] (rat, in vivo, 125 mg/kg/day) is reported as -2.64%. In addition, in data set [3] (setting [6]), the “Incidence of Aggressive” value is recorded as 1/8, the “Incidence of Diarrhea” value is 4/8, the “Incidence of Pilo erection” value is on record as 8/8 and the “Incidence of Wet dog shakes” value is given as 6/8. Besides, in data set [3] (+24 hr), the “Incidence of Pilo erection” value is reported as 4/8 and the “Incidence of Tremors” value was 1/4. The “Incidence of Pilo erection” value in data set [3] (+30 hr) is 4/8. In data set [3] (during period of drug substitution, 125 mg/kg/day), the withdrawal symptoms result is given as “marked withdrawal symptoms”.
Take `C=C1C[C@H](C)[C@H]2[C@H]3Cc4ccc(OC)cc4[C@@]2(CCN3CC2CCC2)C1.Cl` [TR-5377, 17-cyclobutylmethyl-3-methoxy-8β-methyl-6-methylene-morphinane Hydrochloride]: the ED50 in data set [2] amounted to 6.42 mg/kg.
For the molecule `C=C1C[C@H](C)[C@H]2[C@H]3Cc4ccc(O)cc4[C@@]2(CCN3CC2CCC2)C1` [TR-5379, 17-Cyclobutylmethyl-3-hydroxy-8β-methyl-6-methylene morphinane], the median effective dose (ED50) in data set [2] was 0.18 mg/kg. Besides, in data set [4] (compared with corresponding 6-keto analog), the morphine antagonist action result is on record as “more potent morphine antagonist action than its corresponding 6-keto analog”. Also, the dose-response curve entry in data set [4] (compared with corresponding 6-keto analog, test not named) is reported as “steeper dose-response curve”. For the same molecule, the substitution for morphine result in data set [1] (rat, in vivo) is on record as “did not substitute for morphine; also recorded: does not substitute for morphine”; in data set [5], “did not substitute for morphine”. The “Mean % Change in Weight From Termination” value in data set [1] (rat, in vivo, 125 mg/kg/day) is given as -11.3%. Also, the “Incidence of Aggressive” value in data set [3] (setting [6]) is on record as 1/6. Besides, the “Incidence of Diarrhea” value is recorded as 4/6 in data set [3] (setting [6]), 2.6 in data set [3] (+24 hr) and 2/6 in data set [3] (+30 hr). For the same molecule, the “Incidence of Pilo erection” value in data set [3] (setting [6]) is 6/6; in data set [3] (+24 hr) it was 6/6; in data set [3] (+30 hr), 4/6.
Turning to `C=C1C[C@H](C)[C@H]2[C@H]3Cc4ccc(OC)cc4[C@@]2(CCN3CC2CC2)C1` [TR-5412, 17-cyclopropylmethyl-3-methoxy-8β-methyl-6-methylene-morphinane], in data set [2], the 50% effective dose (ED50) was found to be 3.2 mg/kg.
With `C=C1C[C@H](C)[C@H]2[C@H]3Cc4ccc(O)cc4[C@@]2(CCN3CC2CC2)C1` [TR-5413, 17-Cyclopropylmethyl-3-hydroxy-8β-methyl-6-methylene-morphinane], the ED50 in data set [2] turned out to be 1.7 mg/kg.
On the same count and under the same terms, the same measure for `C=C1CC[C@H]2[C@H]3Cc4ccc(O)cc4[C@@]2(CCN3CC2CCC2)C1` [TR-5566, 17-Cyclobutylmethyl-3-hydroxy-6-methylene-morphinane Hydrochloride Acetone Solvate]: 0.09 mg/kg; for `C=C1CC[C@H]2[C@H]3Cc4ccc(O)cc4[C@@]2(CCN3CC2CC2)C1` [TR-5609, 17-Cyclopropylmethyl-3-hydroxy-6-methylene-morphinan]: 0.38 mg/kg.
As for `C=C1CC[C@H]2[C@H]3Cc4ccc(OC)cc4[C@@]2(CCN3CC2CCC2)C1` [TR-5610, 17-Cyclobutylmethyl-3-methoxy-6-methylene-morphinane Tartrate Ethanol Solvate], in data set [2], the ED50 amounted to 1.6 mg/kg. In addition, the “AD50 (dose required to inhibit the effect of morphine by 50%)” value in data set [4] (rat, test drug intraperitoneal, ED80 dose of morphine s.c. 10 min later) is “IA @ 10”.
